Measurements as given in PubChem BioAssay AID1259407 (Chemical Carcinogenesis Research Information System (CCRIS), 2018).
Activity calls are given as the source filed them. No rule for the calls is given here.

System: CCRIS mutagenicity, Ames/micronucleus/aberration tests
Experiment: CCRIS mutagenicity studies
[1] = Test System: AMES SALMONELLA TYPHIMURIUM, Strain/Indicator: TA98, Metabolic Activation: RAT, LIVER, S-9, AROCLOR 1254, Method: STANDARD PLATE
[2] = Test System: AMES SALMONELLA TYPHIMURIUM, Strain/Indicator: TA98, Metabolic Activation: NONE, Method: STANDARD PLATE
[3] = Test System: AMES SALMONELLA TYPHIMURIUM, Strain/Indicator: TA100, Metabolic Activation: NONE, Method: STANDARD PLATE
[4] = Test System: AMES SALMONELLA TYPHIMURIUM, Strain/Indicator: TA1537, Metabolic Activation: NONE, Method: STANDARD PLATE

`O=[As]O` was tested, and the mutagenic call (End Point: IN VITRO CHROMOSOMAL ABERRATIONS, Test System: CHINESE HAMSTER OVARY (CHO), Metabolic Activation: NONE) was “active; positive (structural changes: breaks, exchanges, endoreduplication)”, the mutagenic call (End Point: IN VITRO CHROMOSOMAL ABERRATIONS, Test System: HUMAN FIBROBLAST (HFW), Metabolic Activation: NONE) was “active; positive (structural changes: breaks, fusion)” and the mutagenic call (End Point: IN VITRO CHROMOSOMAL ABERRATIONS, Test System: HUMAN LYMPHOCYTES, Metabolic Activation: NONE, Method: FISH) was “active; positive (hyperdiploidy)”. For the same compound, the mutagenic call (End Point: IN VITRO CHROMOSOMAL ABERRATIONS, Test System: V79-C13 CHINESE HAMSTER CELLS, Metabolic Activation: NONE) was “inactive; negative”, the mutagenic call (End Point: IN VITRO MICRONUCLEUS, Test System: CHINESE HAMSTER OVARY CELLS, Metabolic Activation: NONE) was “active; positive” and the mutagenic call (End Point: IN VITRO MICRONUCLEUS, Test System: CHINESE HAMSTER V-79, Metabolic Activation: NONE) was “active; positive”. For the same compound, the mutagenic call (End Point: IN VITRO MICRONUCLEUS, Test System: HUMAN FIBROBLASTS VH25 CELLS, Metabolic Activation: NONE) was “active; positive”, the mutagenic call (End Point: IN VITRO MICRONUCLEUS, Test System: V79-C13 CHINESE HAMSTER CELLS, Metabolic Activation: NONE) was “active; positive” and the mutagenic call (End Point: In vitro chromosomal aberrations, Test System: Human peripheral lymphocytes, Metabolic Activation: None) was “active; positive”. For the same compound, the mutagenic call (End Point: In vitro micronucleus, Test System: Human peripheral lymphocytes, Metabolic Activation: None) was “active; positive”, the mutagenic call (End Point: In vivo micronucleus, Test System: Bone marrow polychromatic erythrocytes, Species: Mouse, Strain/Sex: C57BL/6J/Han/Male, Route: Oral) was “active; positive” and the mutagenic call (Test System: AMES SALMONELLA TYPHIMURIUM, Strain/Indicator: TA102, Metabolic Activation: NONE, Method: STANDARD PLATE) was “inactive; negative”. For the same compound, the mutagenic call (Test System: MOUSE LYMPHOMA, Strain/Indicator: L5178Y (TK+/TK-), Metabolic Activation: NONE, Method: SUSPENSION/PLATE) was “active; positive” and the mutagenic call (Test System: Mouse lymphoma, Strain/Indicator: L5178Y (TK+/TK-), Metabolic Activation: None, Method: Microwell) was “active; positive (statistically significant at 2 highest doses)”.

For `O=[N+]([O-])c1ccc(Br)c([N+](=O)[O-])c1`, the mutagenic call (Test System: AMES SALMONELLA TYPHIMURIUM, Strain/Indicator: TA98(1,8-DNP6), Metabolic Activation: NONE, Method: PREINCUBATION) was “active; positive”, the mutagenic call (Test System: AMES SALMONELLA TYPHIMURIUM, Strain/Indicator: TA98(NR), Metabolic Activation: NONE, Method: PREINCUBATION) was “active; positive” and the mutagenic call (Test System: AMES SALMONELLA TYPHIMURIUM, Strain/Indicator: TA98, Metabolic Activation: NONE, Method: PREINCUBATION) was “active; positive”. The mutagenic call (Test System: AMES SALMONELLA TYPHIMURIUM, Strain/Indicator: TA100(NR), Metabolic Activation: NONE, Method: PREINCUBATION) was “active; positive”, the mutagenic call (Test System: AMES SALMONELLA TYPHIMURIUM, Strain/Indicator: TA100/GSH-, Metabolic Activation: NONE, Method: PREINCUBATION) was “active; positive” and the mutagenic call (Test System: AMES SALMONELLA TYPHIMURIUM, Strain/Indicator: TA100, Metabolic Activation: NONE, Method: PREINCUBATION) was “active; positive”.

In the case of `CC(=O)Nc1ccc2ccc3c(O)ccc4ccc1c2c43`, the mutagenic call (Test System: AMES SALMONELLA TYPHIMURIUM, Strain/Indicator: TA98(1,8-DNP6), Metabolic Activation: NONE, Method: STANDARD PLATE) is reported as “inactive; negative”, the mutagenic call (Test System: AMES SALMONELLA TYPHIMURIUM, Strain/Indicator: TA98(1,8-DNP6), Metabolic Activation: RAT, LIVER, S-9, AROCLOR 1254, Method: STANDARD PLATE) is reported as “inactive; negative” and the mutagenic call [1] is reported as “active; positive”. For the same compound, the mutagenic call (Test System: AMES SALMONELLA TYPHIMURIUM, Strain/Indicator: YG1024, Metabolic Activation: NONE, Method: STANDARD PLATE) was “inactive; negative” and the mutagenic call (Test System: AMES SALMONELLA TYPHIMURIUM, Strain/Indicator: YG1024, Metabolic Activation: RAT, LIVER, S-9, AROCLOR 1254, Method: STANDARD PLATE) was “active; positive”.

In the case of `ONc1ccc(Cl)c(Cl)c1`, the mutagenic call (Test System: AMES SALMONELLA TYPHIMURIUM, Strain/Indicator: TA97, Metabolic Activation: NONE, Method: STANDARD PLATE) is reported as “inactive; negative”, the mutagenic call [2] is reported as “inactive; negative” and the mutagenic call [3] is reported as “inactive; negative”. For the same compound, the mutagenic call (Test System: AMES SALMONELLA TYPHIMURIUM, Strain/Indicator: TA104, Metabolic Activation: NONE, Method: STANDARD PLATE) was “inactive; negative” and the mutagenic call (Test System: CHINESE HAMSTER OVARY, Strain/Indicator: CHO-K1-BH4 (HGPRT), Metabolic Activation: NONE) was “inactive; negative”.

For `CC(C)(C)NCC(O)COc1ccccc1C1=CCCC1` (stereo not given), the mutagenic call [2] was “inactive; negative” and the mutagenic call [1] was “inactive; negative”.

In the case of `CC(=O)CCN(C)N=O`, the mutagenic call (Test System: CHINESE HAMSTER V-79, Strain/Indicator: V-79/OUABAIN, Metabolic Activation: HAMSTER, HEPATOCYTES, Method: CELL-MEDIATED) is reported as “active; positive”.

In the case of `CCC(=O)Nc1snc2ccc(C)cc12`, the mutagenic call [3] is reported as “inactive; negative”, the mutagenic call (Test System: AMES SALMONELLA TYPHIMURIUM, Strain/Indicator: TA100, Metabolic Activation: S-9, Method: STANDARD PLATE) is reported as “inactive; negative” and the mutagenic call [4] is reported as “inactive; negative”. The mutagenic call (Test System: AMES SALMONELLA TYPHIMURIUM, Strain/Indicator: TA1537, Metabolic Activation: S-9, Method: STANDARD PLATE) was “inactive; negative”.

`CCCCCCCCCCCCCCCCCCO` was tested, and the mutagenic call [2] was “inactive; negative”, the mutagenic call [1] was “inactive; negative” and the mutagenic call [3] was “inactive; negative”. For the same compound, the mutagenic call (Test System: AMES SALMONELLA TYPHIMURIUM, Strain/Indicator: TA100, Metabolic Activation: RAT, LIVER, S-9, AROCLOR 1254, Method: STANDARD PLATE) was “inactive; negative”, the mutagenic call (Test System: AMES SALMONELLA TYPHIMURIUM, Strain/Indicator: TA1535, Metabolic Activation: NONE, Method: STANDARD PLATE) was “inactive; negative” and the mutagenic call (Test System: AMES SALMONELLA TYPHIMURIUM, Strain/Indicator: TA1535, Metabolic Activation: RAT, LIVER, S-9, AROCLOR 1254, Method: STANDARD PLATE) was “inactive; negative”. For the same compound, the mutagenic call [4] was “inactive; negative”, the mutagenic call (Test System: AMES SALMONELLA TYPHIMURIUM, Strain/Indicator: TA1537, Metabolic Activation: RAT, LIVER, S-9, AROCLOR 1254, Method: STANDARD PLATE) was “inactive; negative” and the mutagenic call (Test System: AMES SALMONELLA TYPHIMURIUM, Strain/Indicator: TA1538, Metabolic Activation: NONE, Method: STANDARD PLATE) was “inactive; negative”. For the same compound, the mutagenic call (Test System: AMES SALMONELLA TYPHIMURIUM, Strain/Indicator: TA1538, Metabolic Activation: RAT, LIVER, S-9, AROCLOR 1254, Method: STANDARD PLATE) was “inactive; negative”, the mutagenic call (Test System: E. COLI, Strain/Indicator: WP2, Metabolic Activation: NONE, Method: STANDARD PLATE) was “inactive; negative” and the mutagenic call (Test System: E. COLI, Strain/Indicator: WP2, Metabolic Activation: RAT, LIVER, S-9, AROCLOR 1254, Method: STANDARD PLATE) was “inactive; negative”.

`O=[N+]([O-])c1ccc2sncc2c1` was tested, and the mutagenic call [3] was “active; positive”.
